Experimental data as given in EP4711377A1, “STEROID COMPOUND, PREPARATION METHOD THEREFOR, AND USE THEREOF” (Shujing Biopharma Co., Ltd, priority 2023, dated 2024).

Experiments:
[1] = system: C57 mice; assay: forced swimming test in mice; type: in vivo; conditions: 3 mg/kg p.o.; for immobility time during minutes 2-6, Mean value: one hour after the administration
Description: (§1) The core manifestations of depression are despair, helplessness, and anhedonia. The forced swimming test is commonly used to evaluate despair-like behavior. In this test, the animal is placed in an unpleasant and inescapable environment (a water tank). […] Anhedonia means a loss of interest in things that were once pleasurable; in rodents, it is typically manifested as a reduced preference for sweet foods (sucrose). Therefore, the in vivo efficacy of the compounds of the examples of the present disclosure in mice can be evaluated by forced swimming and sucrose preference tests.
(§2) Female/male C57 mice, purchased from SPF (Suzhou) Biotechnology Co., Ltd.
(§3) Note: ①Vehicle: 5% of DMSO + 5% of HS-15 + 90% of 20% hydroxypropyl-β-cyclodextrin (10 mL/kg, p.o.).
Forced swimming: Animals were divided into a control group and various test drug administration dose groups, which were subjected to vehicle and test drug administration, respectively. One hour after the administration, the animals were placed in a 25 °C plexiglass cylinder with a water depth of 20 cm. The swimming status of the animals in the water was recorded by video, and the immobility time of the animals (characterized by floating in the water and stopping struggling) during minutes 2-6 was recorded and analyzed.
(§4) Experimental data were expressed as χ ± SEM. One-way analysis of variance was employed, and pairwise comparisons were performed using Dunnett's multiple comparisons tests. The floating immobility time, swimming time, and struggling time were recorded.

[2] = system: mice with PTZ-induced convulsions; assay: in vivo efficacy experiment in PTZ-induced epilepsy mouse model; design: species or system C57 mice; conditions: for Survival rate: 60 min before PTZ 120 mg/kg s.c., 30 min observation; for Number of clonic seizures / Number of tonic seizures / Clonic seizure latency period / Tonic seizure latency period: Mean ± SEM; for Clonic seizure latency period / Tonic seizure latency period: no seizure in 30 min recorded as 1800 s; for protective effects against acute epileptic seizures: conclusion in words
Protocol: Male C57 mice, purchased from SPF (Suzhou) Biotechnology Co., Ltd.
PTZ: a 120 mg/kg PTZ solution (administration volume: 10 mL/kg) was prepared with normal saline as the solvent.
Test compounds: solutions of the test compounds at 3/1/0.3 mg/kg (administration volume: 10 mL/kg) were prepared with Vehicle in section 1.4 as the solvent.
One hour before the test, the experimental animals were transferred into an operation room for acclimation.
The mice were randomly grouped, marked, and weighed, with 10 mice in each group. At 60 min before PTZ administration, the test compounds and Vehicle were separately orally administered.
The PTZ solution was administered subcutaneously before experimental observation, and this time point was recorded as the observation starting point.
Immediately after PTZ administration, the animals were placed in observation boxes and observed for 30 min. The following observations of the animals were recorded:
Clonic seizure: the animal has a generalized myoclonus that lasts for more than 3 s and is accompanied by falling.
Tonic seizure: the limbs are straightened at a 90° angle to the torso.
All metrology data were expressed as mean ± standard error of mean (Mean ± SEM), and the Prism 8.0 statistical software was used for data testing and analysis.

[3] = system: C57 mice; assay: sucrose preference test in mice; type: in vivo; conditions: 3 mg/kg p.o.; for Sucrose preference degree, Mean value: mice with chronic stress, 2 h free drinking
Description: as §1, §2, §3
Sugar preference: D1: a 1% sucrose solution was provided on both sides; D2/3: drinking water was provided on one side, while a 1% sucrose solution was provided on the other side; D4: water and food were deprived; D5: sucrose preference degree was tested. During the test, the mice with chronic stress were subjected to administration according to the experimental groups. After the administration, pre-weighed sucrose solution and drinking water were provided on […]. The animals were allowed free access to drinking for 2 h in a dark environment, and during this period, the positions of the sucrose solution and drinking water were switched at the 1-hour mark.
as §4
Sucrose preference degree (%) = sucrose solution consumption/(sucrose solution consumption + purified water consumption) × 100%.

SMILES | immobility time during minutes 2-6, Mean value [1] | effect on immobility time compared to the blank group ([1]; conclusion in words) | Survival rate ([2]; dose 0.3 mg/kg p.o.) | Survival rate ([2]; dose 1 mg/kg p.o.) | Survival rate ([2]; dose 3 mg/kg p.o.) | Number of clonic seizures ([2]; dose 3 mg/kg p.o.) | Number of tonic seizures ([2]; dose 3 mg/kg p.o.) | Clonic seizure latency period ([2]; dose 3 mg/kg p.o.) | Tonic seizure latency period ([2]; dose 3 mg/kg p.o.) | protective effects against acute epileptic seizures ([2]; extremely low dose (0.3 mpk)) | protective effects against acute epileptic seizures ([2]; low dose (1 mpk)) | Sucrose preference degree, Mean value [3] | effect on sucrose preference degree compared to the blank group ([3]; conclusion in words)
C[C@@H]1C[C@H](C(=O)Cn2ncnn2)[C@@]2(C)CC[C@H]3[C@@H](CC[C@@H]4C[C@](C)(O)[C@@H](C)C[C@@H]43)[C@H]12 [Example 9, 1-((2S,3S,5R,8R,9R,10S,13S,14S,15R,17S)-3-Hydroxy-2,3,13,15-tetramethylhexadecahydro-1H-cyclopenta[a]phenanthren-17-yl)-2-(2H-tetrazol-2-yl)ethan-1-one] | 54.68 s | significantly reduce the immobility time | 10% | 100% | 100% | 0.2±0.1 | 0.0±0.0 | 1649.7 ± 105.0 s | 1800.0 ± 0.0 s | partial protective effects | significant protective effects | 88.37% | significantly improve the sucrose preference degree
C[C@H]1C[C@H]2[C@H](CC[C@@H]3[C@@H]2CC[C@]2(C)[C@@H](C(=O)Cn4ncnn4)CC[C@@H]32)C[C@]1(C)O [Example 20, 1-((2S,3S,5R,8R,9R,10S,13S,14S,17S)-3-Hydroxy-2,3,13-trimethylhexadecahydro-1H-cyclopenta[a]phenanthren-17-yl)-2-(2H-tetrazol-2-yl)ethan-1-one] | – | – | 10% | 100% | – | 0.0±0.0 | 0.0±0.0 | 1800.0 ± 0.0 s | 1800.0 ± 0.0 s | partial protective effects | significant protective effects | – | –
C[C@@]1(O)CC[C@H]2[C@H](CC[C@@H]3[C@@H]2CC[C@]2(C)[C@@H](C(=O)Cn4cc(C#N)cn4)CC[C@@H]32)C1 [Sage-217, reference compound] | 56.38 s | – | 0% | 100% | 100% | 0.9±0.3 | 0.0±0.0 | 1012.3 ± 181.4 s | 1800.0 ± 0.0 s | – | significant protective effects | 84.31% | –
